row,Compound,melting point
1,O=C(Oc1ccccc1)n1c(C(F)(F)F)nc2c([N+](=O)[O-])cc(C(F)(F)F)cc21,100 to 103 °C
2,CNS(=O)(=O)CC(=O)C1=C(C)NC(C)=C(C(=O)OC)C1c1cccc([N+](=O)[O-])c1 (centres undefined),173 to 176 °C
3,Cc1ccccc1S(=O)(=O)c1cc2c(cc1C)OC(C(=O)O)O2 (centres undefined),178 to 180 °C
4,CC(C)n1nc(O)nc1N(C)C,111 to 112 °C
5,CC(C)(O)c1csc(S(N)(=O)=O)c1,125 to 127 °C
6,O=[N+]([O-])c1ccc2nc(-c3ccco3)[nH]c2c1,228 to 229 °C
7,O=C(NCC12CC3CC(CC(C3)C1)C2)c1cc(-c2ccc(Cl)cc2C(=O)O)ccc1Cl,207 to 210 °C
8,COC(=O)c1sc(C)cc1N1N=C2c3cc(C)sc3SCC2CC1=O (centres undefined),164 to 166 °C
9,Cc1cc(-c2ccccc2)co1,89 to 91 °C
10,Cc1cc(Cl)cc2c1OCCCC2NS(C)(=O)=O (centres undefined),154 to 156 °C
11,CCc1cn(C2CC(O)(c3ccc(C)cc3)C(C(O)c3ccc(C)cc3)O2)c(=O)[nH]c1=O (centres undefined),192 to 194 °C
12,CCOC(=O)C1CCC(c2ccccc2)n2c(=O)n(CCCl)c(=O)n21 (centres undefined),87 to 89 °C
13,O=C(c1ccco1)C1C(=O)N(C(=O)Nc2ccc(F)cc2F)c2ccccc21 (centres undefined),191 to 192 °C
14,CC(Br)(CBr)CS(=O)(=O)Oc1c(Cl)cccc1Cl (centres undefined),74 to 76 °C
15,c1cnc2ncn(CCCCc3nnnn3C3CCCCC3)c2c1,143 to 146 °C
16,Cc1ccc([C@@H]2c3c(C)c(N4CCC(c5ccc(F)cc5)CC4)c(C)c(C)c3OC2(C)C)cc1,141 to 144 °C
17,N#CC1c2cc(Cl)c(Cl)cc2C=CN1C(=O)c1ccccc1 (centres undefined),194 to 196 °C
18,c1nc(SCC2CCCCC2)n[nH]1,74 to 78 °C
19,CCOC(=O)C1=C(O)c2cc3ccccc3n2CC1,101 to 103 °C

row,Compound,melting point
1,CSc1nsc(-c2ccccc2)n1,57.1 °C
2,CCOC(=O)c1cc([N+](=O)[O-])c(=O)[nH]c1C(=O)OCC,144 to 145 °C
3,COC(=O)c1cc(CBr)cc(CBr)c1,64 to 70 °C
4,CCCCCCCCCCCCCC(=O)N[C@H](C(=O)O)C(C)C,88 to 89 °C
5,O=[N+]([O-])c1ccc(-c2cnc(Nc3ccc(Oc4ccccc4)cc3)s2)cc1,191 to 196 °C
6,CCC1c2cc(F)ccc2-c2cc(-c3ccccc3)ccc2N1S(=O)(=O)c1ccc(O)cc1 (centres undefined),207 °C
7,O=C1Nc2cc(C(F)(F)F)ccc2Oc2ccccc21,246 to 247 °C
8,CCOC(=O)C(C#N)=Cc1cc(OC)c(OC)c2c1C=CCO2,104 to 108 °C
9,COC(=O)C1=C(C)NC(C)=C(C(=O)OC)C1c1cc([N+](=O)[O-])ccc1OC/C=C/CCl,206 to 207 °C
10,N#Cc1cscc1C#N,170 to 171 °C
11,COC(=O)c1cc(=O)c2oc3ccc(Cl)cc3c(=O)c2[nH]1,300 to 305 °C
12,COc1cc(-n2c(=O)cc(C(F)(F)F)[nH]c2=O)ccc1C#N,> 230 °C
13,C=CCN1CC(C)N(C(c2cccc(O)c2)c2cccc(C#N)c2)CC1C (centres undefined),169 to 171 °C
14,CN(C)C(=O)c1cccnc1S(=O)(=O)Br,108 to 111 °C
15,Nc1ccc(Cl)cc1S,70 to 72 °C
16,O=C(c1cc(Cl)c(Cl)cc1NS(=O)(=O)c1cccc2nsnc12)N1CCCCC1,178 to 179 °C
17,N#Cc1cccc(C(=O)c2ccc(C3CCCCC3)cc2)c1,73 to 74 °C
18,CCC1c2cccn2-c2cc(F)c(F)cc2N1S(=O)(=O)c1ccc(O)cc1 (centres undefined),177 to 179 °C
19,CNC(=O)c1cc(-c2ccc(OC)c(Cl)c2)nn(CC2CC2)c1=O,172 to 173 °C

# Continued, values first:
row,melting point,Compound
1,204 to 205 °C,Cc1ccc(OCc2c(F)cccc2Cl)c(NC(=S)Nc2ccc(Cl)cc2)n1
2,84.5 to 86.5 °C,COc1ccc(C(=S)Nc2ccccc2OC)cc1
3,51 to 53 °C,O=Cc1cccc(OCCc2coc(-c3ccccc3)n2)c1
4,176 to 178 °C,O=C(O)Cc1ccc(-n2cc(Cl)cn2)cc1
5,110 to 111 °C,COC(=O)c1cccc(N)c1NCc1ccc(-c2ccccc2C#N)cc1
6,142 to 144 °C,Cc1oc(-c2ccccc2)nc1CCOc1ccc(CCC(=O)O)cc1
7,245 to 246 °C,O=C(NCCc1ccccc1)Nc1ccc2ncc(Br)cc2n1
8,82 to 84 °C,OCCOc1cccc2cccnc12
9,106 to 108 °C,CCCNC(=O)c1nc(-c2ccccc2)c(-c2ccc(=O)n(CC)n2)s1
10,48 to 49 °C,Cc1ncnc(C)c1C(=O)N1CC2CN(CCC(NC(=O)C3CCCC3)c3ccccc3)CC2C1 (centres undefined)
11,59 to 61 °C,CCOC(=O)c1ccc(CCNS(=O)(=O)C=Cc2ccccc2)cc1
12,165 °C,Cc1ccc(C(O)(c2ccc3c(c2)c(-c2cccc(Cl)c2)nc2nnnn23)c2cncn2C)cc1 (centres undefined)
13,161 to 162 °C,CCOC(=O)c1cc(=O)c2c(OCCOc3ccc4c(c3)OCO4)cccc2o1
14,101 to 104 °C,CCC(C)C=C(C(=O)c1ccc(Cl)cc1Cl)n1cncn1 (centres undefined)
15,199 to 200 °C,CCOCc1nc2c(N)nc3ccccc3c2n1CCCc1cc(-c2cccnc2)no1
16,74 to 78 °C,COC1=NS(=O)(=O)N(C)C(OCCCCc2ccccc2)=N1
17,109 to 110 °C,O=C(CO)Cc1ccc2ccccc2c1
18,136 to 137 °C,COc1ccc(C(=O)CCC(=O)O)cc1N

row,melting point,Compound
1,162 °C,CCCCOc1ccc(S(=O)(=O)C2(C(=O)O)CCN(CC)CC2)cc1
2,116 to 119 °C,COc1cc(C2=CCCCC2)c(Cl)cc1C(=O)N1Cc2ccc(C(=O)N(C)CCCN(C)C)n2Cc2ccccc21
3,171 to 172 °C,COc1cc(Nc2nccc(-c3ccc(OCc4ccccc4)cc3)n2)cc(OC)c1OC
4,249 to 250 °C,Cc1cc(-c2ccc(Cl)cc2)cn2cc(C(=O)NC(Cc3ccc(OCc4ccccc4)cc3)C(=O)O)nc12 (centres undefined)
5,246 °C,CC1(C)CC(n2cncc2C(=O)O)c2ccccc2O1 (centres undefined)
6,256 to 258 °C,CC(=O)NC[C@H]1CN(c2ccc(C(=O)c3cnc4cc(-c5ccccc5)ccn34)cc2)C(=O)O1
7,188 °C,CCOc1nc(N)nc(-c2ccccc2)c1-c1ccc(=O)n(C(C)C)n1
8,51 to 52 °C,CCCOc1ccc([N+](=O)[O-])cc1C=O
9,110 to 118 °C,CC(C)(C)OC(=O)N1C[C@@H](Sc2ccccc2)C[C@H]1C(=O)O
10,204 to 207 °C,O=C(O)COC1CCN(Cc2ccc3c(c2)Nc2nccnc2S3)CC1
11,170 °C,COc1ccc(NC(=O)C#Cc2ccc(CN3CCCCC3)cc2)cc1
12,199 °C,O=C(NC(=O)c1cc(F)ccc1Cl)Nc1ccc(OC(F)(F)F)cc1
13,201 to 202 °C,CC1CC2C3CCC4=CC(=O)C=CC4(C)C3C(=O)CC2(C)C1C(=O)COC(=O)C(C)(C)C (centres undefined)
14,129 to 132 °C,CC(=NO)c1ccc(OCC(O)(Cn2cncn2)C(C)(C)C)cc1 (centres undefined)
15,36 to 38 °C,CC(=O)c1ccc(C2=CCCCCC2)cc1
16,103 to 109 °C,O=Cc1ccccc1C(=O)c1ccc(Br)cc1
17,232 to 234 °C,CCCCOC(=O)c1ccc(N2CCN(CCCS(=O)(=O)O)CC2)cc1
18,154 to 156 °C,C=C(c1ccc(C(=O)N(C)OC)cc1)C(O)(Cn1cncn1)c1ccc(F)cc1F (centres undefined)

# — a melting point compilation (Tetko et al.; mined from patent text by program, amines drawn as free bases though some values may be those of a salt)
